Tests used:
Conditions in all cases: exposure time: 90 min
1309 [1] = donor line of iPSC-derived cardiomyocytes; experiment: POD (EC10) for decrease in total cell number (cytotoxicity) vs vehicle; higher = less potent (higher point of departure)
Method: (§1)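 Human iPSC-derived cardiomyocytes from 16 donors were exposed for 90 min at 37 °C to each PFAS at 0.1, 1, 10 and 100 µM in 0.5% DMSO, 384-well plates. Kinetic Ca2+ flux (FLIPR) and Hoechst nuclei counts were normalised to vehicle wells and fitted with a hierarchical Bayesian Hill model to give donor-specific PODs: EC05 for beat-rate increase or decrease and for decay-to-rise ratio increase (QT proxy), EC95 for peak-frequency loss (asystole), EC10 for total cell number loss. 0.03 µM is the lower bound.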

1368 [2] = donor line of iPSC-derived cardiomyocytes; experiment: as above
Method: as §1

1535 [3] = donor line of iPSC-derived cardiomyocytes; experiment: as above
Method: as §1

1083 [4] = donor line of iPSC-derived cardiomyocytes; experiment: as above
Method: as §1

1516 = donor line of iPSC-derived cardiomyocytes; experiment: as above
Method: as §1

1118 [5] = donor line of iPSC-derived cardiomyocytes; experiment: as above
Method: as §1

1518 = donor line of iPSC-derived cardiomyocytes; experiment: as above
Method: as §1

1392 = donor line of iPSC-derived cardiomyocytes; experiment: POD (EC05) for increase in Ca2+ transient decay-to-rise ratio (QT prolongation) vs vehicle; higher = less potent (higher point of departure)
Method: as §1

1434 = donor line of iPSC-derived cardiomyocytes; experiment: as above
Method: as §1

1309 [6] = experiment: as above
Method: as §1

1368 [7] = experiment: as above
Method: as §1

30145 = donor line of iPSC-derived cardiomyocytes; experiment: as above
Method: as §1

1535 [8] = experiment: as above
Method: as §1

11235 = donor line of iPSC-derived cardiomyocytes; experiment: as above
Method: as §1

1083 [9] = experiment: as above
Method: as §1

30171 = donor line of iPSC-derived cardiomyocytes; experiment: as above
Method: as §1

20032 = donor line of iPSC-derived cardiomyocytes; experiment: as above
Method: as §1

1118 [10] = experiment: as above
Method: as §1

1565 = donor line of iPSC-derived cardiomyocytes; experiment: as above
Method: as §1

20084 = donor line of iPSC-derived cardiomyocytes; experiment: as above
Method: as §1

Structure (SMILES)	POD vs vehicle 1309 [1]	POD vs vehicle 1368 [2]	POD vs vehicle 1535 [3]	POD vs vehicle 1083 [4]	POD vs vehicle 1516	POD vs vehicle 1118 [5]	POD vs vehicle 1518	POD vs vehicle 1392	POD vs vehicle 1434	POD vs vehicle 1309 [6]	POD vs vehicle 1368 [7]	POD vs vehicle 30145	POD vs vehicle 1535 [8]	POD vs vehicle 11235	POD vs vehicle 1083 [9]	POD vs vehicle 30171	POD vs vehicle 20032	POD vs vehicle 1118 [10]	POD vs vehicle 1565	POD vs vehicle 20084
O=C(O)C(F)(F)OC(F)(F)C(F)(F)OC(F)(F)C(F)(F)OC(F)(F)C(F)(F)C(F)(F)C(F)(F)F [Perfluoro-3,6,9-trioxatridecanoic_acid]	> 100 µM	> 100 µM	> 100 µM	> 100 µM	55.4 µM	> 100 µM	> 100 µM	> 100 µM	> 100 µM	> 100 µM	> 100 µM	> 100 µM	> 100 µM	> 100 µM	> 100 µM	> 100 µM	> 100 µM	> 100 µM	> 100 µM	> 100 µM
O=C(O)C(F)(F)OC(F)(F)C(F)(F)OC(F)(F)F [Perfluoro-3,6-dioxaheptanoic_acid]	> 100 µM	> 100 µM	> 100 µM	> 100 µM	> 100 µM	> 100 µM	> 100 µM	> 100 µM	> 100 µM	> 100 µM	> 100 µM	> 100 µM	> 100 µM	> 100 µM	> 100 µM	> 100 µM	> 100 µM	> 100 µM	> 100 µM	> 100 µM
O=C(O)C(F)(F)OC(F)(F)C(F)(F)OC(F)(F)C(=O)O [Perfluoro-3,6-dioxaoctane-1,8-dioic_acid]	> 100 µM	> 100 µM	> 100 µM	> 100 µM	> 100 µM	> 100 µM	> 100 µM	> 100 µM	> 100 µM	> 100 µM	> 100 µM	> 100 µM	> 100 µM	> 100 µM	> 100 µM	> 100 µM	> 100 µM	> 100 µM	> 100 µM	> 100 µM
O=C(O)C(F)(F)C(F)(F)OC(F)(F)F [Perfluoro-3-methoxypropanoic_acid]	> 100 µM	> 100 µM	> 100 µM	> 100 µM	> 100 µM	> 100 µM	> 100 µM	> 100 µM	> 100 µM	> 100 µM	> 100 µM	> 100 µM	> 100 µM	> 100 µM	> 100 µM	> 100 µM	> 100 µM	> 100 µM	> 100 µM	> 100 µM
O=C(O)C(F)(F)C(F)(F)C(F)(F)OC(F)(C(F)(F)F)C(F)(F)F [Perfluoro-4-isopropoxybutanoic_acid]	> 100 µM	> 100 µM	> 100 µM	> 100 µM	> 100 µM	> 100 µM	> 100 µM	> 100 µM	> 100 µM	> 100 µM	> 100 µM	> 100 µM	> 100 µM	> 100 µM	> 100 µM	> 100 µM	> 100 µM	> 100 µM	> 100 µM	> 100 µM
O=S(=O)(O)C(F)(F)C(F)(F)C(F)(F)C(F)(F)F [Perfluorobutanesulfonic_acid]	> 100 µM	> 100 µM	> 100 µM	> 100 µM	> 100 µM	> 100 µM	> 100 µM	> 100 µM	> 100 µM	> 100 µM	> 100 µM	> 100 µM	> 100 µM	> 100 µM	> 100 µM	> 100 µM	> 100 µM	> 100 µM	> 100 µM	> 100 µM
O=C(O)C(F)(F)C(F)(F)C(F)(F)F [Perfluorobutanoic_acid]	> 100 µM	> 100 µM	> 100 µM	> 100 µM	> 100 µM	> 100 µM	> 100 µM	> 100 µM	> 100 µM	> 100 µM	> 100 µM	> 100 µM	> 100 µM	> 100 µM	> 100 µM	> 100 µM	> 100 µM	> 100 µM	> 100 µM	> 100 µM
O=C(O)C(F)(F)C(F)(F)C(F)(F)C(F)(F)C(F)(F)C(F)(F)C(F)(F)C(F)(F)C(F)(F)F [Perfluorodecanoic_acid]	> 100 µM	> 100 µM	> 100 µM	> 100 µM	> 100 µM	> 100 µM	67.6 µM	> 100 µM	19.9 µM	> 100 µM	> 100 µM	> 100 µM	> 100 µM	> 100 µM	> 100 µM	> 100 µM	> 100 µM	> 100 µM	> 100 µM	> 100 µM
NS(=O)(=O)C(F)(F)C(F)(F)C(F)(F)C(F)(F)C(F)(F)C(F)(F)F [Perfluorohexanesulfonamide]	70.7 µM	> 100 µM	> 100 µM	> 100 µM	61.1 µM	14.9 µM	> 100 µM	> 100 µM	> 100 µM	> 100 µM	> 100 µM	> 100 µM	16.8 µM	> 100 µM	30.8 µM	> 100 µM	> 100 µM	> 100 µM	> 100 µM	> 100 µM
O=S(=O)(O)C(F)(F)C(F)(F)C(F)(F)C(F)(F)C(F)(F)C(F)(F)F [Perfluorohexanesulfonic_acid]	> 100 µM	> 100 µM	> 100 µM	> 100 µM	> 100 µM	> 100 µM	> 100 µM	> 100 µM	> 100 µM	> 100 µM	> 100 µM	> 100 µM	> 100 µM	> 100 µM	> 100 µM	21.2 µM	> 100 µM	> 100 µM	> 100 µM	> 100 µM
O=C(O)C(F)(F)C(F)(F)C(F)(F)C(F)(F)C(F)(F)F [Perfluorohexanoic_acid]	> 100 µM	> 100 µM	> 100 µM	> 100 µM	> 100 µM	> 100 µM	> 100 µM	> 100 µM	> 100 µM	> 100 µM	> 100 µM	> 100 µM	> 100 µM	> 100 µM	> 100 µM	> 100 µM	> 100 µM	> 100 µM	> 100 µM	> 100 µM
O=C(O)C(F)(F)C(F)(F)C(F)(F)C(F)(F)C(F)(F)C(F)(F)C(F)(F)C(F)(F)F [Perfluorononanoic_acid]	> 100 µM	> 100 µM	> 100 µM	> 100 µM	> 100 µM	> 100 µM	> 100 µM	> 100 µM	> 100 µM	> 100 µM	> 100 µM	> 100 µM	> 100 µM	> 100 µM	> 100 µM	> 100 µM	> 100 µM	> 100 µM	> 100 µM	> 100 µM
O=S(=O)(O)C(F)(F)C(F)(F)C(F)(F)C(F)(F)C(F)(F)C(F)(F)C(F)(F)C(F)(F)F [Perfluorooctanesulfonic_acid]	88.7 µM	> 100 µM	> 100 µM	> 100 µM	> 100 µM	> 100 µM	> 100 µM	> 100 µM	> 100 µM	> 100 µM	> 100 µM	> 100 µM	> 100 µM	> 100 µM	> 100 µM	> 100 µM	> 100 µM	> 100 µM	> 100 µM	> 100 µM
O=C(O)C(F)(F)C(F)(F)C(F)(F)C(F)(F)C(F)(F)C(F)(F)C(F)(F)F [Perfluorooctanoic_acid]	> 100 µM	> 100 µM	> 100 µM	> 100 µM	> 100 µM	> 100 µM	> 100 µM	> 100 µM	> 100 µM	> 100 µM	> 100 µM	> 100 µM	> 100 µM	> 100 µM	> 100 µM	> 100 µM	> 100 µM	> 100 µM	> 100 µM	> 100 µM
O=C(O)C(F)(F)C(F)(F)C(F)(F)C(F)(F)F [Perfluoropentanoic_acid]	> 100 µM	> 100 µM	> 100 µM	> 100 µM	> 100 µM	> 100 µM	> 100 µM	> 100 µM	> 100 µM	> 100 µM	> 100 µM	> 100 µM	> 100 µM	> 100 µM	> 100 µM	> 100 µM	> 100 µM	> 100 µM	> 100 µM	> 100 µM
O=C(O)C(F)(F)C(F)(F)F [Perfluoropropanoic_acid]	> 100 µM	> 100 µM	> 100 µM	> 100 µM	> 100 µM	> 100 µM	> 100 µM	> 100 µM	> 100 µM	> 100 µM	> 100 µM	> 100 µM	> 100 µM	> 100 µM	> 100 µM	> 100 µM	> 100 µM	> 100 µM	> 100 µM	> 100 µM
O=C(O)C(F)(F)C(F)(F)C(F)(F)C(F)(F)C(F)(F)C(F)(F)C(F)(F)C(F)(F)C(F)(F)C(F)(F)F [Perfluoroundecanoic_acid]	> 100 µM	> 100 µM	> 100 µM	> 100 µM	> 100 µM	> 100 µM	> 100 µM	> 100 µM	> 100 µM	> 100 µM	> 100 µM	> 100 µM	> 100 µM	> 100 µM	> 100 µM	4.57 µM	> 100 µM	> 100 µM	> 100 µM	> 100 µM
O=S(=O)([O-])C(F)(F)C(F)(F)C(F)(F)C(F)(F)F.[K+] [Potassium_perfluorobutanesulfonate]	> 100 µM	> 100 µM	> 100 µM	> 100 µM	> 100 µM	> 100 µM	> 100 µM	> 100 µM	> 100 µM	> 100 µM	> 100 µM	> 100 µM	> 100 µM	> 100 µM	> 100 µM	> 100 µM	> 100 µM	> 100 µM	> 100 µM	> 100 µM
